{
  "source": "patent US6630510B1",
  "about": "“Substituted succinic acid metallo-β-lactamase inhibitors and their use in treating bacterial infections” (priority 1999, dated 2003)",
  "key": {"[1]": {"system": "E. coli BL21(DE3)/pET30a-IMP-1", "assay": "Carbapenem sensitivity (MIC) of E. coli expressing IMP-1", "type": "cell-based", "conditions": "for fold reduced sensitivity resulting from basal (uninduced) IMP-1 expression: pET30a-IMP-1 introduced into E. coli BL21(DE3)", "source_text": "A laboratory strain of E.coli engineered to express IMP-1 was used to evaluate the ability of succinate derivatives to reverse metallo-β-lactamase-mediated carbapenem resistance in bacteria. Native IMP-1, which included the N-terminal periplasmic signal sequence, was PCR amplified from […] isolated from a carbapenem resistant P. aeruginosa clinical isolate, CL56673, and cloned into the pET30a vector. […] To evaluate IMP-1 inhibitors, an overnight culture of E. coli BL2(DE3)/pET30a-IMP-1, grown 35° C. in LB broth (Difco) or Mueller Hinton broth (BBL) supplemented with kanamycin ([…]), was diluted to a final concentration of ˜10^5 cells/ml in Mueller Hinton broth (BBL) containing a subinhibitory concentration (0.25×MIC) of the carbapenem, (1S,5R,6S)-1-methyl-2-{7-[4-(aminocarbonylmethyl)-1,4-diazoniabicyclo(2.2.2)octan-1-yl]methyl-fluoren-9-on-3-yl}-6-(1R-hydroxyethyl)carbapen-2-em-3-carboxylate chloride. Various concentrations of IMP-1 inhibitor were added to the bacterial growth medium and their capacity to effect a four-fold or greater increase in sensitivity to the carbapenem was monitored."}, "E. coli BL21(DE3)": {"system": "E. coli BL21(DE3)", "assay": "Carbapenem MIC in E. coli without IMP-1 expression", "type": "cell-based", "conditions": "without expression of IMP-1"}},
  "data": [
    {"compound": "C[C@@H](O)[C@H]1C(=O)N2C(C(=O)O)=C(SCCN=CN)C[C@H]12", "note": "[impenem, imipenem, reference compound]", "values": [
      {"measurement": "fold reduced sensitivity resulting from basal (uninduced) IMP-1 expression", "setting": "[1]", "result": 4, "unit": "fold"}
    ]},
    {"compound": "C[C@@H](O)[C@H]1C(=O)N2C(C(=O)O)=C(S[C@@H]3CN[C@H](C(=O)N(C)C)C3)[C@H](C)[C@H]12", "note": "[meropenem, reference compound]", "values": [
      {"measurement": "fold reduced sensitivity resulting from basal (uninduced) IMP-1 expression", "setting": "[1]", "result": 64, "unit": "fold"}
    ]},
    {"compound": "(1S,5R,6S)-1-methyl-2-{7-[4-(aminocarbonylmethyl)-1,4-diazoniabicyclo(2.2.2)octan-1-yl]methyl-fluoren-9-on-3-yl}-6-(1R-hydroxyethyl)-carbapen-2-em-3-carboxylate chloride", "values": [
      {"measurement": "fold reduced sensitivity resulting from basal (uninduced) IMP-1 expression", "setting": "[1]", "result": 500, "unit": "fold"},
      {"measurement": "minimum inhibitory concentration (MIC)", "setting": "[1]; with expression of IMP-1", "result": "16 to 32", "unit": "µg/mL"},
      {"measurement": "minimum inhibitory concentration (MIC)", "setting": "E. coli BL21(DE3)", "result": "0.06 to 0.12", "unit": "µg/mL"}
    ]}
  ]
}
